Experimental findings from patent US11912723B2, “KRAS modulators and uses thereof” (Quanta Therapeutics, Inc., priority 2022, dated 2024) are described below.

The assay deals with T1, GST-tagged KRAS G12D (2-169) (Homo sapiens, UniProt P01116, G12D).
T1 construct: GST-tagged KRAS^G12D (2-169, Reaction Biology, MSC-11-539); purchased Reaction Biology MSC-11-539 (KRAS G12D); MSC-11-502 (SOS1cat)
As to the kind of experiment: Nucleotide exchange assay (NEA), HTRF of SOS-mediated GTP-DY-647P1 binding. The class given is biochemical. The following applies: 5 nM GST-KRAS G12D, 20 nM SOScat, 150 nM GTP; compound 1 h at RT. An excerpt:
This activity is tightly regulated by GTPase activating proteins (GAPs) and guanine nucleotide exchange factors (GEFs). GEFs, such as SOS1/2, activate Ras proteins by exchanging GDP for GTP, thus returning Ras to its active conformation (Simanshu, Nissley, & McCormick, 2017). […] Homogenous time resolved fluorescence (HTRF) was used to detect SOS-mediated binding of a fluorescent GTP analog, GTP-DY-647P1 (Jena Biosciences NU-820-647P1) to GST-tagged KRAS^G12D (2-169, Reaction Biology, MSC-11-539).
GST-tagged KRAS^G12D (2-169) and anti-GST MAb Tb Cryptate Gold (CisBio 61GSTTLB) were diluted into assay buffer (20 mM HEPES, pH 7.3, 150 mM NaCl, 5 mM MgCl2, 0.05% BSA 0.0025% NP40, 1 mM DTT) to prepare a 2.5× donor solution. 5× compound was added to the protein mixture and incubated for 1 h at RT. 2.5× acceptor solution containing SOS1cat (564-1049, Reaction Biology MSC-11-502) and GTP-DY-647P1 were then added to the donor KRAS mixture such that the final concentration of the reaction contained 5 nM GST-tagged KRAS^G12D (2-169), 20 nM SOScat, and 150 nM GTP. The reaction was monitored using at RT with the Envision multimode plate reader (Ex/Em 337/665, […]) up to 90 minutes at 5 minute intervals. Data was blanked to reactions without SOS1 and % inhibition was calculated such that DMSO only=0% and blank=100%. Curve fitting was done using a 4 parameter fit. NEA KRAS G12D ID50 (uM) values of selected compounds are depicted in Table 2 with compounds having a value<0.01 uM as ++++; >0.01 uM to 0.1 uM as +++; >0.1 uM to 1 uM as ++; >1 uM to 20 uM as +; and >20 uM as NA.

T1 sequence (P01116 2-169 isoform P01116-2 G12D): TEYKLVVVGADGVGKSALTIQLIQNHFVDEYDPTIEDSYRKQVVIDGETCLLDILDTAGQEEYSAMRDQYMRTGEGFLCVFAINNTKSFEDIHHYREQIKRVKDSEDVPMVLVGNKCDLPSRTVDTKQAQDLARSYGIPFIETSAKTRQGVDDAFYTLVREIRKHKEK

In the case of `N#Cc1c(N)sc2c1C1(CCC2)Cc2nc(OC[C@@]34CCCN3C[C@H](F)C4)nc(N3CCCCCC3)c2CO1` (mixture of isomers) [Compound 26, 2′-amino-4-(azepan-1-yl)-2-[[rac-(2R,8S)-2-fluoro-1,2,3,5,6,7-hexahydropyrrolizin-8-yl]methoxy]spiro[5,8-dihydropyrano[4,3-d]pyrimidine-7,4′-6,7-dihydro-5H-benzothiophene]-3′-carbonitrile], the IC50 is 1000 to 20000 nM.
The value for `C[C@@]1(NC#N)CCCN(c2nc(OC[C@@]34CCCN3C[C@H](F)C4)nc3c2COC2(CCc4c(Cl)cccc42)C3)C1` (stereo partly drawn) [Compound 46B, [(3R)-1-[(7*)-4′-chloro-2-[[(2R,8S)-2-fluoro-1,2,3,5,6,7-hexahydropyrrolizin-8-yl]methoxy]spiro[5,8-dihydropyrano[4,3-d]pyrimidine-7,1′-indane]-4-yl]-3-methyl-3-piperidyl]cyanamide; 2,2,2-trifluoroacetic acid] was 1000 to 20000 nM; that for `CN(C)C(=O)c1nn2c(c1Cl)CN(c1nc(OC[C@@]34CCCN3C[C@H](F)C4)nc3c1CN(CC#N)[C@@]1(CCc4cccc(F)c41)C3)CCC2` [Compound 101, 3-chloro-5-[(7S)-6-(cyanomethyl)-7′-fluoro-2-[[(2R,8S)-2-fluoro-1,2,3,5,6,7-hexahydropyrrolizin-8-yl]methoxy]spiro[5,8-dihydropyrido[4,3-d]pyrimidine-7,1′-indane]-4-yl]-N,N-dimethyl-4,6,7,8-tetrahydropyrazolo[1,5-a][1,4]diazepine-2-carboxamide] was 100 to 1000 nM.
Compound `CCN1Cc2c(nc(OC[C@@]34CCCN3C[C@H](F)C4)nc2N2CCCn3nc(C(=O)N(C)C)c(Cl)c3C2)C[C@]12CCc1cccc(F)c12` [Compound 103, 3-chloro-5-[(7S)-6-ethyl-7′-fluoro-2-[[(2R,8S)-2-fluoro-1,2,3,5,6,7-hexahydropyrrolizin-8-yl]methoxy]spiro[5,8-dihydropyrido[4,3-d]pyrimidine-7,1′-indane]-4-yl]-N,N-dimethyl-4,6,7,8-tetrahydropyrazolo[1,5-a][1,4]diazepine-2-carboxamide] gave a concentration for half-maximal inhibition (IC50) of 10 to 100 nM.
`CN(C)C(=O)c1nn2c(c1Cl)CN(c1nc(OC[C@@]34CCCN3C[C@H](F)C4)nc3c1COC1(CCc4ccc(C(F)F)cc41)C3)CCC2` (stereo partly drawn) [Compound 75, 3-chloro-5-[6′-(difluoromethyl)-2-[[(2R,8S)-2-fluoro-1,2,3,5,6,7-hexahydropyrrolizin-8-yl]methoxy]spiro[5,8-dihydropyrano[4,3-d]pyrimidine-7,1′-indane]-4-yl]-N,N-dimethyl-4,6,7,8-tetrahydropyrazolo[1,5-a][1,4]diazepine-2-carboxamide] returned an IC50 of 100 to 1000 nM.
As for `O=C1NC(=O)[C@]2(CCCN(c3nc(OC[C@@]45CCCN4C[C@H](F)C5)nc4c3COC3(CCCc5c(Cl)cc(O)cc53)C4)C2)N1` (single isomer, unassigned) [Compound 51A, (5R)-9-[(7*)-5′-chloro-2-[[(2R,8S)-2-fluoro-1,2,3,5,6,7-hexahydropyrrolizin-8-yl]methoxy]-7′-hydroxy-spiro[5,8-dihydropyrano[4,3-d]pyrimidine-7,1′-tetralin]-4-yl]-1,3,9-triazaspiro[4.5]decane-2,4-dione], the IC50 lay in the range of 1000 to 20000 nM.
With `F[C@H]1CN2CCC[C@@]2(COc2nc3c(c(N4CCCCCC4)n2)COC2(CCCc4ccccc42)C3)C1` (stereo partly drawn) [Compound 12, 4-(azepan-1-yl)-2-[[(2R,8S)-2-fluoro-1,2,3,5,6,7-hexahydropyrrolizin-8-yl]methoxy]spiro[5,8-dihydropyrano[4,3-d]pyrimidine-7,1′-tetralin]], the IC50 lay in the range of 1000 to 20000 nM.
The value for `CN1Cc2c(nc(OC[C@@]34CCCN3C[C@H](F)C4)nc2N2CCC[C@]3(C2)NC(=O)NC3=O)C[C@]12CCc1c(Cl)cccc12` [Compound 58, (5R)-9-[(7S)-4′-chloro-2-[[(2R,8S)-2-fluoro-1,2,3,5,6,7-hexahydropyrrolizin-8-yl]methoxy]-6-methyl-spiro[5,8-dihydropyrido[4,3-d]pyrimidine-7,1′-indane]-4-yl]-1,3,9-triazaspiro[4.5]decane-2,4-dione] was 10 to 100 nM.
On to `O=C1CCCN(c2nc(OCC34CCCN3CC(F)C4)nc3c2COC2(CCc4c(Cl)cccc42)C3)CC1` (mixture of isomers) [Compound 21, 1-[4′-chloro-2-[[rac-(2R,8S)-2-fluoro-1,2,3,5,6,7-hexahydropyrrolizin-8-yl]methoxy]spiro[5,8-dihydropyrano[4,3-d]pyrimidine-7,1′-indane]-4-yl]azepan-4-one], for which the IC50 lay within 1000 to 20000 nM.
Compound `N#CN[C@@H]1CCCCN(c2nc(OC[C@@]34CCCN3C[C@H](F)C4)nc3c2CO[C@@]2(CCc4c(Cl)cccc42)C3)C1` [Compound 44, [(3R)-1-[(7S)-4′-chloro-2-[[(2R)-2-fluoro-1,2,3,5,6,7-hexahydropyrrolizin-8-yl]methoxy]spiro[5,8-dihydropyrano[4,3-d]pyrimidine-7,1′-indane]-4-yl]azepan-3-yl]cyanamide] displayed a half-maximal inhibitory concentration (IC50) of 1000 to 20000 nM.
`C[C@@]1(O)CCCN(c2nc(OC[C@@]34CCCN3C[C@H](F)C4)nc3c2COC2(CCc4c(Cl)cccc42)C3)C1` (single isomer, unassigned) [Compound 23B, (3R)-1-[(7*)-4′-chloro-2-[[(2R,8S)-2-fluoro-1,2,3,5,6,7-hexahydropyrrolizin-8-yl]methoxy]spiro[5,8-dihydropyrano[4,3-d]pyrimidine-7,1′-indane]-4-yl]-3-methyl-piperidin-3-ol] displayed an IC50 of 1000 to 20000 nM.
The value for `CN(C)C(=O)c1nn2c(c1Cl)CN(c1nc(OC[C@@]34CCCN3C[C@H](F)C4)nc3c1CN(CC#N)[C@@]1(CCCc4ccccc41)C3)CCC2` [Compound 102, 3-chloro-5-[(7S)-6-(cyanomethyl)-2-[[(2R,8S)-2-fluoro-1,2,3,5,6,7-hexahydropyrrolizin-8-yl]methoxy]spiro[5,8-dihydropyrido[4,3-d]pyrimidine-7,1′-tetralin]-4-yl]-N,N-dimethyl-4,6,7,8-tetrahydropyrazolo[1,5-a][1,4]diazepine-2-carboxamide] was 10 to 100 nM; that for `O=C(c1nn2c(c1Cl)CN(c1nc(OC[C@@]34CCCN3C[C@H](F)C4)nc3c1CO[C@@]1(CCc4c(Cl)cccc41)C3)CCC2)N1CCS(=O)(=O)CC1` [Compound 56, [3-chloro-5-[(7R)-4′-chloro-2-[[(2R,8S)-2-fluoro-1,2,3,5,6,7-hexahydropyrrolizin-8-yl]methoxy]spiro[5,8-dihydropyrano[4,3-d]pyrimidine-7,1′-indane]-4-yl]-4,6,7,8-tetrahydropyrazolo[1,5-a][1,4]diazepin-2-yl]-(1,1-dioxo-1,4-thiazinan-4-yl)methanone] was 10 to 100 nM.
Regarding `O[C@@H]1CCN(c2nc(OC[C@@]34CCCN3C[C@H](F)C4)nc3c2COC2(CCc4c(Cl)cccc42)C3)CC[C@@H]1O` (stereo partly drawn) [Compound 22, syn-1-[4′-chloro-2-[[(2R,8S)-2-fluoro-1,2,3,5,6,7-hexahydropyrrolizin-8-yl]methoxy]spiro[5,8-dihydropyrano[4,3-d]pyrimidine-7,1′-indane]-4-yl]azepane-4,5-diol], the IC50 was in the range of 1000 to 20000 nM.
Turning to `OC1CCCN(c2nc(OC[C@@]34CCCN3C[C@H](F)C4)nc3c2COC2(CCCc4ccc(F)cc42)C3)CC1` (stereo partly drawn) [Compound 11, 1-[7′-fluoro-2-[[(2R,8S)-2-fluoro-1,2,3,5,6,7-hexahydropyrrolizin-8-yl]methoxy]spiro[5,8-dihydropyrano[4,3-d]pyrimidine-7,1′-tetralin]-4-yl]azepan-4-ol], the IC50 fell in the range of 1000 to 20000 nM.
